In patent publication US20230149362A1, “NEW CAPSULE COMPOSITION FOR PERORAL ADMINISTRATION” (Vicore Pharma AB, priority 2020, published 2023):
Where a name gives a salt, the structure may show the parent alone.

Legend:
Assay type in all cases: physicochemical
[1] = Solubility of C21 sodium salt in aqueous vehicles; conditions: for solubility: thermodynamic from solid, saturation not reached, read-out: Concentration (solubility)
Experimental: In this experiment, C21 sodium salt (Syntagon AB) was added to the vehicle, small amounts at a time. About 20-30 mg of the sodium salt was easily dissolved in all the vehicles tested. Salt was continuously added to the same sample in an attempt to obtain a saturated solution. In this way, higher amounts, such as 40-60 mg/mL could be dissolved. The solubility is probably even higher than this in the vehicles tested, but this was not established in view of the limited amount of drug compound available.

[2] = Stability of aqueous solutions of C21 under four storage conditions (sensitivity to light); conditions: for Amount of Free C21, % of initial / Solution pH: sodium salt solution
Experimental: The stability of free C21 in 0.9% NaCl pH 9.4 was investigated.
Solutions of 1 mg/mL of C21 were studied for four weeks under four different storage conditions. The solution was filtered through a 0.22 sterile syringe filter to minimize bacterial growth during the stability test. The samples were analysed by HPLC for purity.
The results are summarised in Table 3 below, in which the amount of C21 is given as a percentage of the initial amount of drug. Solution pHs were also measured and are shown within parenthesis in Table 3.
The stability of the sodium salt of C21 was also investigated under the same storage conditions.
At the time for analysis of the one week samples, it was noted that the heating cabinet for storage of samples at 40° C. was broken. In view of this, these samples were thereafter kept at room temperature for three days.

[3] = Solubility of C21 sodium salt in lipid-based excipients (UPLC)
Experimental: C21 sodium salt (RISE AB, Södertälje, Sweden) was mixed with various potential carriers in the proportions described in Table 5 below (mg of C21 per gram of excipient) and absolute solubility of C21 was determined, two and five days after mixing.
The procedure was carried out by first weighing around 2.955 g of each excipient into a 20 mL headspace vial. Then, 0.045 g of C21 was added to each vial to reach a starting concentration of 15 mg/g. A magnetic stirrer was added into each mixture to stir the dispersion during the entire study (at around 300 rpm).
Solubility was determined at room temperature in general, although some of the excipients listed below (those marked with an asterisk) are solid at room temperature, in which case solubility was determined at 60° C.
The mixtures were observed over time to confirm excipient saturation. In the case of complete C21 solubilization (i.e. no particles were visible), addition of C21 was performed until a maximum API concentration of 100 mg/g was attained.
After confirming that the saturation point had been reached, or after reaching the maximum API concentration of 100 mg/g, sampling of the mixtures were performed after two (T2) and five (T5) days of stirring.
At each tirnepoint, and for each excipient, sampling was performed. The samples were filtered prior to assaying to determine the C21 sodium salt solubility in each excipient.
Two analytical samples were prepared from the filtrate obtain a mean value.
A Waters UPLC Acquity system (CSH C18; 100×2.1 mm×1.7 μm) with a UV and a DED detector was used to quantitatively determine solubility. The following chromatograhpic conditions were applied: (A) mobile phase water with 003% TFA, (6) acetonitrile with 0.03% TFA, with gradient, flow rate 0.5 mL/min, temperature 40° C., run time 24 minutes, injection volume 2 μL at room temperature.

[4] = 40° C., dark, 1 week, heating cabinet found broken

solubility ([1]; aqueous buffer, vehicle PBS pH 7.4, measured pH 9.4): > 40 mg/mL
solubility compared with free C21 ([1]; aqueous vehicles): considerably higher than free C21
solubility ([1]; saline or isotonic, vehicle 0.9% NaCl, pH 9.3): > 40 mg/mL
amount that could be dissolved ([1]; vehicles tested (H2O, 0.9% NaCl, PBS), salt added continuously): 40 to 60 mg/mL
solubility ([1]; water, vehicle H2O, pH 9.8): > 65 mg/mL
light-induced degradation ([2]; aqueous solution, RT/light): light-induced degradation occurs
Amount of Free C21, % of initial ([2]; 5° C., dark, 1 week): 108 % of initial
Solution pH ([2]; 5° C., dark, 1 week): (8.5)
Amount of Free C21, % of initial ([2]; 5° C., dark, 2 weeks): 113 % of initial
Solution pH ([2]; 5° C., dark, 2 weeks): (8.4)
Amount of Free C21, % of initial ([2]; 5° C., dark, 3 weeks): 113 % of initial
Solution pH ([2]; 5° C., dark, 3 weeks): (8.5)
Amount of Free C21, % of initial ([2]; 5° C., dark, 4 weeks): 112 % of initial
Solution pH ([2]; 5° C., dark, 4 weeks): (8.5)
Amount of Free C21, % of initial ([2]; 5° C., dark, Initial): 100 % of initial
Solution pH ([2]; 5° C., dark, Initial): (8.3)
Amount of Free C21, % of initial [2, 4]: 111 % of initial
Solution pH [2, 4]: (8.6)
Amount of Free C21, % of initial ([2]; 40° C., dark, 2 weeks): 111 % of initial
Solution pH ([2]; 40° C., dark, 2 weeks): (8.5)
Amount of Free C21, % of initial ([2]; 40° C., dark, 3 weeks): 109 % of initial
Solution pH ([2]; 40° C., dark, 3 weeks): (8.7)
Amount of Free C21, % of initial ([2]; 40° C., dark, 4 weeks): 118 % of initial
Solution pH ([2]; 40° C., dark, 4 weeks): (8.1)
Amount of Free C21, % of initial ([2]; 40° C., dark, Initial): 100 % of initial
Solution pH ([2]; 40° C., dark, Initial): (8.3)
Amount of Free C21, % of initial ([2]; RT, dark, 1 week): 115 % of initial
Solution pH ([2]; RT, dark, 1 week): (8.6)
Amount of Free C21, % of initial ([2]; RT, dark, 2 weeks): 110 % of initial
Solution pH ([2]; RT, dark, 2 weeks): (8.8)
Amount of Free C21, % of initial ([2]; RT, dark, 3 weeks): 111 % of initial
Solution pH ([2]; RT, dark, 3 weeks): (8.8)
Amount of Free C21, % of initial ([2]; RT, dark, 4 weeks): 112 % of initial
Solution pH ([2]; RT, dark, 4 weeks): (8.2)
Amount of Free C21, % of initial ([2]; RT, dark, Initial): 100 % of initial
Solution pH ([2]; RT, dark, Initial): (8.3)
Amount of Free C21, % of initial ([2]; RT, light, 1 week): 108 % of initial
Solution pH ([2]; RT, light, 1 week): (8.4)
Amount of Free C21, % of initial ([2]; RT, light, 2 weeks): 96 % of initial
Solution pH ([2]; RT, light, 2 weeks): (8.0)
Amount of Free C21, % of initial ([2]; RT, light, 3 weeks): 72 % of initial
Solution pH ([2]; RT, light, 3 weeks): (8.3)
Amount of Free C21, % of initial ([2]; RT, light, 4 weeks): 9 % of initial
Solution pH ([2]; RT, light, 4 weeks): (7.3)
Amount of Free C21, % of initial ([2]; RT, light, Initial): 100 % of initial
Solution pH ([2]; RT, light, Initial): (8.3)
C21 Mean Solubility T5 Assay ([3]; Fasted Simulated Intestinal Fluid (FaSSIF), five days, room temperature): 10.4 mg/g
C21 Mean Solubility T2 Assay ([3]; Fasted Simulated Intestinal Fluid (FaSSIF), two days, room temperature): 10.4 mg/g
C21 Mean Solubility T5 Assay ([3]; Fed Simulated Intestinal Fluid (FeSSIF), five days, room temperature): 0.6 mg/g
C21 Mean Solubility T2 Assay ([3]; Fed Simulated Intestinal Fluid (FeSSIF), two days, room temperature): 0.3 mg/g
C21 Mean Solubility T5 Assay ([3]; Gelucire 43/01, five days, 60° C.): 0.0 mg/g
C21 Mean Solubility T2 Assay ([3]; Gelucire 43/01, two days, 60° C.): 0.0 mg/g
C21 Mean Solubility T5 Assay ([3]; Gelucire 44/14, five days, 60° C.): 43.9 mg/g
C21 Mean Solubility T2 Assay ([3]; Gelucire 44/14, two days, 60° C.): 44.1 mg/g
C21 Mean Solubility T5 Assay ([3]; Glyceryl monolinoleate (Maisine CC), five days, room temperature): 60.4 mg/g
C21 Mean Solubility T2 Assay ([3]; Glyceryl monolinoleate (Maisine CC), two days, room temperature): 61.4 mg/g
C21 Mean Solubility T5 Assay ([3]; Glyceryl monooleate (Peceol), five days, room temperature): 82.2 mg/g
C21 Mean Solubility T2 Assay ([3]; Glyceryl monooleate (Peceol), two days, room temperature): 82.3 mg/g
solubility ([3]; Labrafil M2130CS, at 60° C.): around 14 mg/g
C21 Mean Solubility T5 Assay ([3]; Lauryl polyoxyl-6-glycerides (Labrafil M 2130 CS), five days, 60° C.): 13.5 mg/g
C21 Mean Solubility T2 Assay ([3]; Lauryl polyoxyl-6-glycerides (Labrafil M 2130 CS), two days, 60° C.): 13.9 mg/g
C21 Mean Solubility T5 Assay ([3]; Linoleoyl polyoxyl-6-glycerides (Labrafil M 2125 CS), five days, room temperature): 21.1 mg/g
C21 Mean Solubility T2 Assay ([3]; Linoleoyl polyoxyl-6-glycerides (Labrafil M 2125 CS), two days, room temperature): 22.0 mg/g
C21 Mean Solubility T5 Assay ([3]; Medium chain triglycerides (Miglyol 812N), five days, room temperature): 0.0 mg/g
C21 Mean Solubility T2 Assay ([3]; Medium chain triglycerides (Miglyol 812N), two days, room temperature): 0.0 mg/g
C21 Mean Solubility T5 Assay ([3]; Oleoyl polyoxyl-6-glycerides (Labrafil M 1944 CS), five days, room temperature): 20.1 mg/g
C21 Mean Solubility T2 Assay ([3]; Oleoyl polyoxyl-6-glycerides (Labrafil M 1944 CS), two days, room temperature): 19.5 mg/g
C21 Mean Solubility T5 Assay ([3]; Polyoxyethylene (20) sorbitan monooleate (Tween 80), five days, room temperature): 84.8 mg/g
C21 Mean Solubility T2 Assay ([3]; Polyoxyethylene (20) sorbitan monooleate (Tween 80), two days, room temperature): 85.2 mg/g
C21 Mean Solubility T5 Assay ([3]; Propylene glycol monocaprylate (Capryol PGMC), five days, room temperature): 7.1 mg/g
C21 Mean Solubility T2 Assay ([3]; Propylene glycol monocaprylate (Capryol PGMC), two days, room temperature): 7.1 mg/g
C21 Mean Solubility T5 Assay ([3]; Propylene glycol monolaurate (Lauroglycol 90), five days, room temperature): 12.4 mg/g
C21 Mean Solubility T2 Assay ([3]; Propylene glycol monolaurate (Lauroglycol 90), two days, room temperature): 12.4 mg/g
C21 Mean Solubility T5 Assay ([3]; Refined corn oil (Henry Lamotte), five days, room temperature): 0.0 mg/g
C21 Mean Solubility T2 Assay ([3]; Refined corn oil (Henry Lamotte), two days, room temperature): 0.0 mg/g
C21 Mean Solubility T5 Assay ([3]; Refined sesame oil (Henry Lamotte), five days of stirring, room temperature): 0.2 mg/g
C21 Mean Solubility T2 Assay ([3]; Refined sesame oil (Henry Lamotte), two days of stirring, room temperature): 0.2 mg/g
C21 Mean Solubility T5 Assay ([3]; Sorbitan monooleate (Montane 80), five days, room temperature): 61.5 mg/g
C21 Mean Solubility T2 Assay ([3]; Sorbitan monooleate (Montane 80), two days, room temperature): 61.6 mg/g
C21 Mean Solubility T5 Assay ([3]; Sorbitan trioleate (Span 85), five days, room temperature): 12.1 mg/g
C21 Mean Solubility T2 Assay ([3]; Sorbitan trioleate (Span 85), two days, room temperature): 15.1 mg/g
C21 Mean Solubility T5 Assay ([3]; Soya oil (Henry Lamotte), five days, room temperature): 0.0 mg/g
C21 Mean Solubility T2 Assay ([3]; Soya oil (Henry Lamotte), two days, room temperature): 0.0 mg/g
C21 Mean Solubility T5 Assay ([3]; Triacetin (Kollisolv GTA), five days, room temperature): 0.3 mg/g
C21 Mean Solubility T2 Assay ([3]; Triacetin (Kollisolv GTA), two days, room temperature): 0.2 mg/g
solubility in words ([3]; triglyceride-based excipients): essentially insoluble
SMILES: CCCCOC(=O)NS(=O)(=O)c1sc(CC(C)C)cc1-c1ccc(Cn2ccnc2)cc1 [C21 sodium salt, N-butyloxycarbonyl-3-(4-imidazol-1-ylmethylphenyl)-5-iso-butylthiophene-2-sulfonamide]
